Experimental data published in US20180346731A1, “Formation of Stable Pyranoanthocyanins, and Uses Thereof as Sources of Natural Color” (Ohio State Innovation Foundation, priority 2017, published 2018).

Assays:
Format in all cases: physicochemical
[1] = Colorimetry (CIEL*c*h*, ΔE) of pigment solutions with ascorbic acid
Protocol: (§1) The semi-purified chokeberry extract, the isolated cyanidin-3-galactoside, and the purified 5-carboxypyranocyanidin-3-galactoside were diluted in pH 3.0 citrate buffer (0.1 M adjusted with HCl) until an absorbance of 1.0 at their respective λmax was reached. Levels of AA of 250, 500, and 1000 mg/L were added using a concentrated ascorbic acid stock solution, and a control consisting of each pigment with the absence of AA was maintained. The control consisted of the pigment in the buffer in the absence of AA. An additional test was performed with the same model juice using hydrogen peroxide, a known degradation product of AA. To determine if AA bleaching was due to formation of H2O2, direct addition of it was investigated. In place of added AA, a 62.2 μL of a 0.3% peroxide solution was added to match the molar equivalency of the 500 mg/L AA level, which was 2.84 mM.
(§2) All samples were brought to the same final volume with additional citrate buffer. […] Samples were stored in the dark at 25° C. in an incubator. UV-Vis spectrophotometry, colorimetry, and HPLC analyses were conducted over a 5 day period following the addition of ascorbic acid or hydrogen peroxide. UV-Vis spectral data was collected every hour for the first 8 hours, and then at 12 hr, and daily from that point on for 5 days. […] HPLC analyses were conducted on days 0, 1, 3, and 5. All treatments were run in triplicate.
Using UV-Vis spectral data (5 nm steps, 380-700 nm) in combination with software written for color conversion, absorbance data was translated to CIE-L*c*h*. The calculations for CIE-L*c*h* implemented by the software used CIE relative spectral power distribution for a D65 standard illuminants and 10° observer angle function. Color data is reported as L* (lightness), c* (chroma), and h* (hue angle).
Total color changes (ΔE) were calculated as the color change from day 0 to 5 for each respective treatment, and presented in Table 4.
Numbers are means of 3 replications, followed by (standard deviations). ΔE: total color change from day 0 (control) to day 5.

[2] = Colorimetry (CIEL*c*h*, ΔE2000) of anthocyanin isolates treated with pyruvic acid, 31 days storage; conditions: day 0 vs day 31, Delta E2000
Protocol: Prior to dilution, the concentrations of the isolated pigment extracts were determined by the pH differential method for subsequent dilution to known concentrations. The isolates were then diluted to 500 μM (expressed as Cyanidin-3-glucoside equivalents) in pH 2.5 deionized water (previously adjusted with HCl) which contained 0.1% potassium sorbate (w/v) and 0.1% sodium benzoate (w/v) to function as preservative agents during storage. A pH of 2.5 was selected as a compromise of several variables: the flavylium form was predominant, the effect of pKh was minimized, and it is a relevant pH for wines. It has been reported that the pKh's of cy3 gal, cy3xylgal, and cy3xylglugal ranges from 3.01 to 3.26. Working at pH 2.5 largely avoided the effect of different equilibrium forms while also maintaining a pH that is similar to that of wines where these compounds are commonly formed. Control samples of each isolate were prepared and contained no pyruvic acid. For treatments containing pyruvic acid, a previously diluted pyruvic acid standard (pyruvic acid in the same pH 2.5 water containing preservatives) was added to obtain concentrations 100× the molar ratio of anthocyanins (50 mM of pyruvic acid). All treatments were brought to the same final volume by the addition of more pH 2.5 water. Samples were filtered through a 0.2 μm membrane into 1.5 mL glass HPLC vials. Vials were capped and stored in an incubator in the dark at 25° C. for a 31 day duration (Fisher Scientific, Waltham, Mass., U.S.). All treatments were prepared in triplicate.
Colorimetric data of samples was calculated from spectra of samples collected from the plate reader with ColorBySpectra. Absorbance data was obtained and conversion to color values was achieved using the following settings: regular transmission, D65 illuminant, and 10° observer angle. Values reported are in the CIEL*c*h* scale. After storage for 31 days, the mathematical differences in color (ΔE) were calculated according to the CIE-L*a*b* Delta E2000 equation. Colorimetric data of the samples containing pyruvic acid was used to correlate with pyranoanthocyanins formation. Spectral absorbance data of the peaks of the anthocyanins and their respective pyranoanthocyanins were also collected from the PDA during uHPLC analyses and converted to colorimetric data using ColorBySpectra under the settings described above. The spectra was obtained from the time of elution of the target compound and then standardized to an absorbance of 1.0 at λvis-max.

[3] = HPLC monitoring of pigment peaks with ascorbic acid
Protocol: Prior to experimentation, pigments were evaluated for purity by using an analytical HPLC only different from the previously listed one by the use of different pumps (LC-20AD, Shimadzu, Md., US). Purified pigments were filtered using the Phenex RC 0.45 μm membranes. A binary system with 1 mL/min flow rate was used: solvent A: 4.5% formic acid in HPLC grade water and solvent B: HPLC grade acetonitrile. The gradient began with an isocratic flow of 6% solvent B for 17 minutes (elution of primary anthocyanins), increasing to 15% solvent B by 45 minutes (elution of primary pyranoanthocyanins), and to 40% solvent B by 50 minutes. A 10 μL injection volume was loaded onto a Phenomenex Kinetix 5 μm EVO C18 100 A. 150×4.6 mm column and Phenomenex Ultra UHPLC EVO C18 guard cartridge attached.
as §1, §2
Prepared solutions were monitored to determine the formation of potential degradation products or profile changes. Using the analytical HPLC system and conditions described, chromatograms were monitored with the max plot (260-700 nm), 490 nm (near λmax of 5-carboxypyranocyanidin-3-galactoside), and 520 nm (near ma of cyanidin-3-galactoside). A max plot of 470-520 nm was later added to standardize changes in the AUC for all three pigments and their degradation products.

[4] = 1000 mg/L AA, listed as cyanidin-3-galactoside

SMILES: OC[C@H]1O[C@@H](Oc2cc3c(O)cc(O)cc3[o+]c2-c2ccc(O)c(O)c2)[C@H](O)[C@@H](O)[C@H]1O [Cyanidin-3-galactoside, cyanidin-3-galactoside]
- Chroma Day 0 ([1]; 250 mg/L AA): 50.8 (0.2)
- Chroma Day 5 ([1]; 250 mg/L AA): 13.9 (0.7)
- Hue Angle Day 0 ([1]; 250 mg/L AA): 18.7 (0.1) °
- Hue Angle Day 5 ([1]; 250 mg/L AA): 21.9 (1.2) °
- Lightness Day 0 ([1]; 250 mg/L AA): 77.5 ( ).2)
- Lightness Day 5 ([1]; 250 mg/L AA): 93.2 (0.3)
- ΔE Over 5 days ([1]; 250 mg/L AA): 19.3 (0.3)
- Chroma Day 0 ([1]; 500 mg/L AA): 51.8 (0.0)
- Chroma Day 5 ([1]; 500 mg/L AA): 10.5 (0.4)
- Hue Angle Day 0 ([1]; 500 mg/L AA): 18.8 (0.0) °
- Hue Angle Day 5 ([1]; 500 mg/L AA): 51.1 (2.7) °
- Lightness Day 0 ([1]; 500 mg/L AA): 77.0 (0.1)
- Lightness Day 5 ([1]; 500 mg/L AA): 94.4 (0.6)
- ΔE Over 5 days ([1]; 500 mg/L AA): 23.6 (0.2)
- Chroma Day 0 ([1]; 1000 mg/L AA): 50.9 (0.1)
- Chroma Day 5 ([1]; 1000 mg/L AA): 13.7 (1.8)
- Hue Angle Day 0 ([1]; 1000 mg/L AA): 18.7 (0.1) °
- Hue Angle Day 5 ([1]; 1000 mg/L AA): 77.5 (4.5) °
- Lightness Day 0 ([1]; 1000 mg/L AA): 77.2 (0.3)
- Lightness Day 5 ([1]; 1000 mg/L AA): 94.5 (0.7)
- ΔE Over 5 days ([1]; 1000 mg/L AA): 27.6 (0.7)
- L* after 48 hours ([1]; 1000 mg/L AA, 48 hours): 96.4
- Hue Angle Day 0 [1, 4]: 18.7 °
- Hue Angle Day 5 [1, 4]: 77.5 °
- Lightness Day 0 [1, 4]: 77.2
- ΔE Over 5 days [1, 4]: 27.6
- Chroma Day 0 ([1]; Control, no AA): 51.2 (0.2)
- Chroma Day 5 ([1]; Control, no AA): 46.5 (2.1)
- Hue Angle Day 0 ([1]; Control, no AA): 18.6 (0.1) °
- Hue Angle Day 5 ([1]; Control, no AA): 15.9 (1.0) °
- Lightness Day 5 ([1]; Control, no AA): 79.4
- ΔE Over 5 days ([1]; Control, no AA): 2.6 (1.1)
- Lightness Day 0 ([1]; Control, no AA, mean (SD), n=3): 77.3 (0.1)
- time until significant change in chroma as compared to the control ([1]; all levels of AA): 2 h
- initial hue angle ([1]; day 0): 16.6 °
- total color change (ΔE) [2]: 8.2
- target peaks left after 1 day ([3]; 1000 mg/L AA, HPLC): 2%
- reduction of pigment peak by day 1 ([3]; 1 g/L AA, HPLC AUC): 91%
- reduction of pigment peak by day 5 ([3]; 1 g/L AA, HPLC AUC): > 99%
